Tested on: sites of inflammation
Test: In vivo imaging of collagen-induced arthritis (CIA) mice, qualitative analysis of targeting
Parameters: species or system Balb/c mice
Details: inflamed paw
Protocol: Inflammation was modeled by inducing polyarticular collagen-induced arthritis (CIA) in 4-6 week old female Balb/c mice (Charles River). Antibody mediated CIA was induced by intravenous (IV; tail vein) injection of 2 mg Arthrogen-CIA Monoclonal Antibody Blend (Chemicon). Three days after antibody treatment, each mouse received 50 μg Lipopolysaccharide (LPS; Chemicon) intraperitoneally (IP). Seven days after the initial injection, the mice had recovered from the LPS toxicity and symptoms of arthritis were observed. Mice were monitored daily and scored for paw and joint swelling based on the following scale: • 0: Normal • 1: Mild but definite swelling of ankle or wrist or swelling limited to individual digits • 2: Moderate redness and swelling of ankle and wrist • 3: Severe redness and swelling of the entire paw including digits (none of the study mice reached this stage)
Mice were injected with the present contrast agent when they reached level 2, between five and ten days after the LPS injection.
Contrast agents were introduced systemically by IV injection. A 29-guage needle was used to inject 100 μl of 1% solids in water (without buffer salts or saline) containing 2% Pluronic F-127 via the lateral tail vein. The tail was stroked lengthwise three times with an alcohol saturated pad to dilate the blood vessels prior to injection. […]

BSA conjugate: BSA conjugate used as comparison contrast agent; labeled the whole paw
image resolution of labeling: labeled the whole paw
